Measurements: patent publication US6703371B1, “Preparations for reducing oxygen consumption during physical efforts” (priority 1999, dated 2004)
Like-named read-outs stand apart in the source and are kept apart here.

Assays:
test subject [1] = experiment: Bicycle ergometer test at 100 W: antagonism between inactive (1st dosage) and active (2nd dosage) substances (Example 1b); assay type: in vivo, human; conditions: for Average heart rate after 1st dosage: 10-minute test at 100 W; for Average heart rate before: 10-minute control test at 100 W before the 1st dosage; for Change in the oxygen consumption after 2nd dosage: relative to after 1st dosage
Protocol: (§1) 13 to Mar. 6, 1999, with a subject in good physical condition under standard conditions. The subject was required each morning in the fasting state to perform successively (without interruption) at mechanical power output of 100 W, 125 W and 150 W, each lasting 10 minutes (total test duration 30 minutes each time). […] The heat production induced by mechanical exertion was calculated from the changes in the heart rate. An alternative possibility is also to determine it on the basis of the increase in humidity caused by the perspiration (the tests are carried out in a closed room) or reduction in weight (1 g of water=2.26 kJ). […] The values indicated in table la for the “average heart rate” are in each case averages over the 30-minute duration of the test; relative values for the oxygen consumption were established on the basis of the heart rates in a known manner, and the relative values indicated in Table 1a are based on the oxygen consumption on the first day (=100%); the values listed in the column “heat production” in Table 1a give the percentage deviation of the heat production, established on the basis of the perspiration, from the average from all the tests.
(§2) It is known that the oxygen uptake can be determined by measuring the heart rate as a function of the mechanical exertion. This ergometric method is based on establishing the oxygen transport volume through the action of the heart. Since the stroke volume is essentially constant irrespective of the intensity of the mechanical work, and the increased oxygen demand caused by the increase in work results in an increase in the heart rate, the quantity of the transported oxygen can be established by determining the additional heartbeats caused by the work. A 3-stage ergometer as recommended by the World Health Organization (WHO) is used in physiology research institutes and fitness clubs around the world.

[2] = Oxygen-sparing action during physical work, general findings in the description; assay type: in vivo; conditions: result in words; for Oxygen demand after administration: even occasionally increased
test subject [3] = assay type: in vivo, human; conditions: Homo sapiens, 10 min
test subject [4] = experiment: Bicycle ergometer test at 100 W: active ingredient, sucrose, further active ingredient, amino acid/vitamin product (Example 1c); assay type: in vivo, human; conditions: for Average heart rate after 4th dos.: 4th dosage 100 mg of Na glutamate, 0.3 mg of folic acid, 5 μg of cyanocobalamin in 10 mg of gelatin; for Average heart rate after 2nd dos.: then 2nd dosage 2.5 g of sucrose
Protocol: as §1, §2

test subject [5] = experiment: as above; assay type: in vivo, human; conditions: for Change in oxygen consumption after 2nd dos.: 2nd dosage 2.5 g of sucrose; for Change in oxygen consumption after 2nd dos. / Change in oxygen consumption after 4th dos. / Change in oxygen consumption after 3rd dos.: relative to preceding dosage; for Change in oxygen consumption after 4th dos.: 4th dosage Na glutamate/folic acid/cyanocobalamin/gelatin; for Average heart rate after 1st dos.: 10-minute test at 100 W
[6] = 1st dosage 10 mg in 20 ml of water
[7] = read-out: Change in the oxygen demand
[8] = read-out: Heat production (deviation from the average of all the tests)

Structure (SMILES): Cl.Cl.OCCN1CCN(CCC=C2c3ccccc3Sc3ccc(C(F)(F)F)cc32)CC1 (mixture of isomers) [flupentixol]
- Average heart rate after 1st dosage (test subject [1]; 1st dosage 0.5 mg in 20 ml of water): 118.4 per minute
- Change in the oxygen consumption after 1st dosage (test subject [1]; 1st dosage 0.5 mg, 100 W): +32%
- Average heart rate before (test subject [1]): 102.6 per minute
- Oxygen demand after administration [2]: not reduced

Structure (SMILES): CN(C)CCC=C1c2ccccc2CCc2ccccc21 [amitriptyline]
- Average heart rate after 1st dosage (test subject [1]; [6]): 119.3 per minute
- change in vivo at 10 mg (test subject [1]; Homo sapiens, 1st dosage 10 mg, 100 W, read-out: Change in the oxygen consumption after 1st dosage): 71%
- Oxygen demand after administration [2]: not reduced

Structure (SMILES): O=C1CN=C(c2ccccn2)c2cc(Br)ccc2N1 [bromazepam]
- change in vivo at 1 mg (test subject [3]; [7]): 0%
- change in vivo at 1 mg (test subject [3]; [8]): 6%
- Average heart rate after 1st dosage (test subject [1]; 1st dosage 3 mg in 20 ml of water): 129.3 per minute
- change in vivo at 3 mg (test subject [1]; Homo sapiens, 1st dosage 3 mg, 100 W, read-out: Change in the oxygen consumption after 1st dosage): 23%
- Oxygen demand after administration [2]: not reduced

Structure (SMILES): CCOC(=O)n1ccn(C)c1=S [carbimazole]
- Suitability for reducing the oxygen consumption during physical work [2]: suitable

Structure (SMILES): CNC1=Nc2ccc(Cl)cc2C(c2ccccc2)=[N+]([O-])C1 [chlordiazepoxide]
- change in vivo at 1 mg (test subject [3]; [7]): 0%
- change in vivo at 1 mg (test subject [3]; [8]): 14%
- Average heart rate after 1st dosage (test subject [1]; 1st dosage 5 mg in 20 ml of water): 126.4 per minute
- change in vivo at 5 mg (test subject [1]; Homo sapiens, 1st dosage 5 mg, 100 W, read-out: Change in the oxygen consumption after 1st dosage): 29%

Structure (SMILES): CN(C)CC/C=C1/c2ccccc2Sc2ccc(Cl)cc21 [chlorprothixen, chlorprothixene]
- Average heart rate after 1st dosage (test subject [1]; [6]): 124.6 per minute
- Change in the oxygen consumption after 1st dosage (test subject [1]; 1st dosage 10 mg, 100 W): +46%
- Average heart rate before (test subject [1]): 101.7 per minute
- Oxygen demand after administration [2]: not reduced

Structure (SMILES): CN1CCC[C@@H]1CCO[C@](C)(c1ccccc1)c1ccc(Cl)cc1 [clemastine]
- Suitability for reducing the oxygen consumption during physical work [2]: suitable

Structure (SMILES): CN1C(=O)CC(=O)N(c2ccccc2)c2cc(Cl)ccc21 [clobazam]
- change in vivo at 1 mg (test subject [3]; [7]): -51%
- change in vivo at 1 mg (test subject [3]; [8]): -49%

Structure (SMILES): CN(C)CCCN1c2ccccc2CCc2ccc(Cl)cc21 [clomipramine]
- Average heart rate after 1st dosage (test subject [1]; 1st dosage 25 mg in 20 ml of water): 134.8 per minute
- change in vivo at 25 mg (test subject [1]; Homo sapiens, 1st dosage 25 mg, 100 W, read-out: Change in the oxygen consumption after 1st dosage): 42%
- Oxygen demand after administration [2]: not reduced

Structure (SMILES): CN1CCN(C2=Nc3ccccc3Sc3ccc(Cl)cc32)CC1 [clothiapine]
- Change in the oxygen consumption after 2nd dosage (test subject [1]; 2nd dosage 1 mg, after 25 mg of clomipramine, 100 W): −70%
- Change in the oxygen consumption after 2nd dosage (test subject [1]; 2nd dosage 1 mg, after 50 mg of opipramol, 100 W): −65%
- Average heart rate after 2nd dosage (test subject [1]; 2nd dosage 1 mg, after 1st dosage of 25 mg of clomipramine, 100 W): 100.0 per minute
- Average heart rate after 2nd dosage (test subject [1]; 2nd dosage 1 mg, after 1st dosage of 50 mg of opipramol, 100 W): 88.9 per minute
- Average heart rate after 4th dos. (test subject [4]; 1 mg series): 82.2 per minute
- Average heart rate after 3rd dos. (test subject [4]; 3rd dosage further 1 mg of active ingredient after sucrose): 113.9 per minute
- Average heart rate after 2nd dos. (test subject [4]; after 1 mg of active ingredient): 112.4 per minute
- Suitability for reducing the oxygen consumption during physical work [2]: suitable
- Change in oxygen consumption after 2nd dos. (test subject [5]; 1 mg series): +78%
- Change in oxygen consumption after 4th dos. (test subject [5]; 1 mg series): −63%
- Average heart rate after 1st dos. (test subject [5]; 1st dosage 1 mg as dilute aqueous solution): 73.2 per minute
- Change in oxygen consumption after 3rd dos. (test subject [5]; 3rd dosage further 1 mg of active ingredient): +3%

Structure (SMILES): CN1CCC(=C2c3ccccc3C=Cc3ccccc32)CC1 [cyproheptadine]
- Change in the oxygen consumption after 2nd dosage (test subject [1]; 2nd dosage 0.2 mg, after 5 mg of chlordiazepoxide, 100 W): −76%
- Change in the oxygen consumption after 2nd dosage (test subject [1]; 2nd dosage 0.2 mg, after 10 mg of amitriptyline, 100 W): −63%
- Average heart rate after 2nd dosage (test subject [1]; 2nd dosage 0.2 mg, after 1st dosage of 5 mg of chlordiazepoxide, 100 W): 88.5 per minute
- Average heart rate after 2nd dosage (test subject [1]; 2nd dosage 0.2 mg, after 1st dosage of 10 mg of amitriptyline, 100 W): 87.6 per minute
- Average heart rate after 4th dos. (test subject [4]; 0.2 mg series): 83.9 per minute
- Average heart rate after 3rd dos. (test subject [4]; 3rd dosage further 0.2 mg of active ingredient after sucrose): 106.4 per minute
- Average heart rate after 2nd dos. (test subject [4]; after 0.2 mg of active ingredient): 109.1 per minute
- Change in oxygen consumption after 2nd dos. (test subject [5]; 0.2 mg series): +69%
- Change in oxygen consumption after 4th dos. (test subject [5]; 0.2 mg series): −45%
- Average heart rate after 1st dos. (test subject [5]; 1st dosage 0.2 mg as dilute aqueous solution): 74.7 per minute
- Change in oxygen consumption after 3rd dos. (test subject [5]; 3rd dosage further 0.2 mg of active ingredient): −5%
